Measurements: patent US12624034B2, “Non-covalent modifiers of AKT1 and uses thereof” (Terremoto Biosciences, Inc., priority 2023, dated 2026)
Read-outs that look alike come from different tables or passages of the source.

Legend:
[1] = test system: LAPC4 prostate cancer cells, which express the AKT1 E17K allele; assay: Antiproliferative effects in LAPC4 cells (CellTiter Glo, 72 h); assay type: cell-based; details: Homo sapiens, LAPC4, 72 h, read-out: LAPC4 proliferation IC50
Experimental: Antiproliferative Effects in LAPC4 Cells.
LAPC4 prostate cancer cells (Klein, K. A. et al. Nat Med 1997, 3, 402-408), which express the AKT1 E17K allele, were grown in IMDM media (Hyclone) supplemented with 12% FBS+1% P/S. To assess compound effects on growth, 1,000 cells/well were seeded in 384 well assay plates, incubated with compound dilutions dissolved in DMSO. After 72 h, intracellular ATP content was assessed with CellTiter Glo reagent (Promega) according to the manufacturer's instructions. IC50 values were calculated by fitting luminescence values to a log(inhibitor) vs. response Hill equation.

AKT1 E17K = biological target: T1, AKT1 E17K (Homo sapiens, UniProt P31749, E17K); assay: Live cell AKT1 E17K target engagement by NanoBRET competitive probe displacement in HEK293 cells; assay type: binding; details: 2 h at 37° C.
T1 construct: expressed in transfected cells; host or cells: HEK293
In short: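 Tracer displacement measured in live HEK293 cells carrying NanoLuciferase-fused kinase. Compound competes with a fluorescently labelled ATP-competitive tracer used near its EC50 over 2 h at 37° C, and IC50 values come from Hill fitting of the 600/460 nm BRET signal.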

AKT1 WT = biological target: T2, AKT1 WT (Homo sapiens, UniProt P31749); assay: Live cell AKT1 WT target engagement by NanoBRET competitive probe displacement in HEK293 cells; assay type: binding; details: 2 h at 37° C., read-out: AKT1 WT IC50
T2 construct: expressed in transfected cells; host or cells: HEK293

AKT2 = biological target: T3, AKT2 (Homo sapiens, UniProt P31751); assay: Live cell AKT2 target engagement by NanoBRET competitive probe displacement in HEK293 cells; assay type: binding; details: 2 h at 37° C., read-out: AKT2 IC50
T3 construct: expressed in transfected cells; host or cells: HEK293

[2] = NanoBRET live cell target engagement, HEK293 cells
[3] = NanoBRET competitive probe displacement, live HEK293 cells

T1 sequence (P31749 whole entry E17K): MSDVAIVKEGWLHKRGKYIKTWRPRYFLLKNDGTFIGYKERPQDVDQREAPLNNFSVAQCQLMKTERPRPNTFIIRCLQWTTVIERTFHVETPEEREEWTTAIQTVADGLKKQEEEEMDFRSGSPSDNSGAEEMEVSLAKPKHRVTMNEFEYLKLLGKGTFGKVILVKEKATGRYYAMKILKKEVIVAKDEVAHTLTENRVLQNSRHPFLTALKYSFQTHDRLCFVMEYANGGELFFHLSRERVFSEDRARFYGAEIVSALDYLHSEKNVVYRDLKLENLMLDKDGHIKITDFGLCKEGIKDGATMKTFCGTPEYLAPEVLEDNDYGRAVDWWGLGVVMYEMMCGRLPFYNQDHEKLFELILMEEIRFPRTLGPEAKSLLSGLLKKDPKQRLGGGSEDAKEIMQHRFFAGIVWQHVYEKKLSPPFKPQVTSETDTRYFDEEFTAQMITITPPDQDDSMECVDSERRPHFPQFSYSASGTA
T3 sequence (P31751 whole entry): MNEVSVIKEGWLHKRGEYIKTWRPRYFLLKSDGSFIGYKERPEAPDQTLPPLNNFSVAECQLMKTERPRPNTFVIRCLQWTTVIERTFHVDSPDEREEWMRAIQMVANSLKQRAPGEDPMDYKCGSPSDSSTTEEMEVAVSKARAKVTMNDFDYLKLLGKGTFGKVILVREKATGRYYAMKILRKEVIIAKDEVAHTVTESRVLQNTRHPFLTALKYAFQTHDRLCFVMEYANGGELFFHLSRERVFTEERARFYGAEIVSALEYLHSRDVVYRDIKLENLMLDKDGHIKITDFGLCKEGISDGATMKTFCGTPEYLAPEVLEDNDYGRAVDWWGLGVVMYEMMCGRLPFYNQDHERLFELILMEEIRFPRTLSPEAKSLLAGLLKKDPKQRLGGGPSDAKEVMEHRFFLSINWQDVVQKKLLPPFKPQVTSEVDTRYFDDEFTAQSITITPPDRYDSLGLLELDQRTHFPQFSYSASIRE
T2 sequence (P31749 whole entry): as the sequence (P31749 whole entry E17K) above, with K17E counted along it

Row | SMILES | IC50 [1] [nM] | IC50 (AKT1 E17K; [2]) [nM] | IC50 (AKT1 WT; [2]) [nM] | IC50 (AKT2; [2]) [nM] | IC50 (AKT1 E17K; [3]) [nM] | IC50 (AKT1 WT; [3]) [nM] | IC50 (AKT2; [3]) [nM]
1 | Cc1ccncc1C(=O)N[C@H]1CCc2cc(-n3c(-c4cccnc4N)nc4ccc(-n5cccn5)nc43)ccc21 [Compound 31, (S)—N-(5-(2-(2-aminopyridin-3-yl)-5-(1H-pyrazol-1-yl)-3H-imidazo[4,5-b]pyridin-3-yl)-2,3-dihydro-1H-inden-1-yl)-4-methylnicotinamide] | 7880 | 366 | 33.9 | 470 | – | – | –
2 | Nc1ncccc1-c1nc2ccc(-n3cccn3)nc2n1-c1ccc2c(c1)CC[C@@H]2NC(=O)C1COC1 [Compound 15, (S)—N-(5-(2-(2-aminopyridin-3-yl)-5-(1H-pyrazol-1-yl)-3H-imidazo[4,5-b]pyridin-3-yl)-2,3-dihydro-1H-inden-1-yl)oxetane-3-carboxamide] | > 10000 | > 1000 | 215 | 4030 | – | – | –
3 | Nc1ncccc1-c1nc2ccc(-n3cccn3)nc2n1-c1ccc2c(c1)CC[C@@H]2NC1CCN(C(=O)c2ccccn2)CC1 [Compound 358] | 7530 | > 1000 | 208 | 4640 | – | – | –
4 | Nc1ncccc1-c1nc2ccc(-n3cccn3)nc2n1-c1ccc2c(c1)CC[C@@H]2NC(=O)c1ccc(Cl)nc1 [Compound 45, (S)—N-(5-(2-(2-aminopyridin-3-yl)-5-(1H-pyrazol-1-yl)-3H-imidazo[4,5-b]pyridin-3-yl)-2,3-dihydro-1H-inden-1-yl)-6-chloronicotinamide] | 1340 | 170 | 17.4 | 139 | – | – | –
5 | Nc1ncccc1-c1nc2ccc(-n3cccn3)nc2n1-c1ccc2c(c1)CC[C@@H]2n1cc(C2CCC2)nn1 [Compound 287] | 3000 | 259 | 16.9 | 636 | – | – | –
6 | Nc1ncccc1-c1nc2ccc(-n3cccn3)nc2n1-c1ccc2c(c1)CC[C@@H]2NC1CCN(C(=O)c2ccccc2)CC1 [Compound 275] | 4380 | 570 | 51 | 1070 | – | – | –
7 | Nc1ncccc1-c1nc2ccc(-c3ccccc3)nc2n1-c1ccc2c(c1)CC[C@@H]2NC1CCN(C(=O)C2CC2)CC1 [Compound 391] | 2250 | 257 | 19.7 | 103 | – | – | –
8 | Nc1ncccc1-c1nc2ccc(-n3nccn3)nc2n1-c1ccc2c(c1)CC[C@@H]2NC(=O)c1ccnc2c1CCO2 [Compound 286] | 4810 | 897 | 40.5 | 589 | – | – | –
9 | COc1cc(C(=O)N[C@H]2CCc3cc(-n4c(-c5ccccc5F)nc5ccc(-n6cccn6)nc54)ccc32)ccn1 [Compound 402] | 3000 | – | – | – | 53.3 | 7.99 | 477
10 | CN(C)C(=O)N1CCC(N[C@H]2CCc3cc(-n4c(-c5cccnc5N)nc5ccc(-n6cccn6)nc54)ccc32)CC1 [Compound 394] | > 10000 | – | – | – | > 1000 | 101 | 1480
11 | Nc1ncccc1-c1nc2ccc(-n3cccn3)nc2n1-c1ccc2c(c1)CC[C@@H]2NC1CCN(c2cccnc2)CC1 [Compound 368] | 6620 | 406 | 36.8 | 768 | – | – | –
12 | Nc1ncccc1-c1nc2ccc(-n3cccn3)nc2n1-c1ccc2c(c1)CC[C@@H]2NC1CCN(C(=O)c2cccnc2)CC1 [Compound 359] | > 10000 | > 1000 | 231 | > 10000 | – | – | –
13 | Nc1ncccc1-c1nc2ccc(-n3cccn3)nc2n1-c1ccc2c(c1)CC[C@@H]2NC(=O)c1ccccn1 [Compound 36, N-[(1S)-5-[2-(2-aminopyridin-3-yl)-5-(pyrazol-1-yl)imidazo[4,5-b]pyridin-3-yl]-2,3-dihydro-1H-inden-1-yl]pyridine-2-carboxamide] | 3460 | 164 | 58.6 | 1250 | – | – | –
14 | Nc1ncccc1-c1nc2ccc(-n3cccn3)nc2n1-c1ccc2c(c1)CC[C@@H]2NC1CN(C(=O)C2CC2)C1 [Compound 441] | 3710 | – | – | – | > 1000 | 21.7 | 1340
15 | Nc1ncccc1-c1nc2ccc(-n3cccn3)nc2n1-c1ccc2c(c1)CC[C@@H]2NC(=O)Cc1ccccn1 [Compound 50, (S)—N-(5-(2-(2-aminopyridin-3-yl)-5-(1H-pyrazol-1-yl)-3H-imidazo[4,5-b]pyridin-3-yl)-2,3-dihydro-1H-inden-1-yl)-2-(pyridin-2-yl)acetamide] | > 10000 | > 1000 | 279 | 3740 | – | – | –

Now those with a lower IC50 [1], led by results:

Row | IC50 [1] [nM] | IC50 (AKT1 E17K; [2]) [nM] | IC50 (AKT1 WT; [2]) [nM] | IC50 (AKT2; [2]) [nM] | IC50 (AKT1 E17K; [3]) [nM] | IC50 (AKT1 WT; [3]) [nM] | IC50 (AKT2; [3]) [nM] | SMILES
16 | 225 | 12.1 | 2.53 | 6.6 | – | – | – | Cn1ncc2cc(C(=O)N[C@H]3CCc4cc(-n5c(-c6cccnc6N)nc6ccc(-n7cccn7)nc65)ccc43)cnc21 [Compound 28, (S)—N-(5-(2-(2-aminopyridin-3-yl)-5-(1H-pyrazol-1-yl)-3H-imidazo[4,5-b]pyridin-3-yl)-2,3-dihydro-1H-inden-1-yl)-1-methyl-1H-pyrazolo[3,4-b]pyridine-5-carboxamide]
17 | 915 | 357 | 11.6 | 128 | – | – | – | Cc1ccc(C(=O)N[C@H]2CCc3cc(-n4c(-c5cccnc5N)nc5ccc(-n6ccc(F)n6)nc54)ccc32)cn1 [Compound 52, (S)—N-(5-(2-(2-aminopyridin-3-yl)-5-(3-fluoro-1H-pyrazol-1-yl)-3H-imidazo[4,5-b]pyridin-3-yl)-2,3-dihydro-1H-inden-1-yl)-6-methylnicotinamide]
18 | 875 | 23.8 | 5.79 | 20 | – | – | – | COc1cc(C(=O)N[C@H]2CCc3cc(-n4c(-c5cccnc5N)nc5ccc(-n6cccn6)nc54)ccc32)c(C)cn1 [Compound 357]
19 | 1290 | 22.9 | 14.5 | 264 | – | – | – | Nc1ncccc1-c1nc2ccc(-n3cccn3)nc2n1-c1ccc2c(c1)CC[C@@H]2NC(=O)c1cncs1 [Compound 14, (S)—N-(5-(2-(2-aminopyridin-3-yl)-5-(1H-pyrazol-1-yl)-3H-imidazo[4,5-b]pyridin-3-yl)-2,3-dihydro-1H-inden-1-yl)thiazole-5-carboxamide]
20 | 925 | 292 | 19.4 | 1070 | – | – | – | Nc1ncccc1-c1nc2ccc(-n3nccn3)nc2n1-c1ccc2c(c1)CC[C@@H]2NC(=O)c1ccc(C(F)F)nc1 [Compound 65, (S)—N-(5-(2-(2-aminopyridin-3-yl)-5-(2H-1,2,3-triazol-2-yl)-3H-imidazo[4,5-b]pyridin-3-yl)-2,3-dihydro-1H-inden-1-yl)-6-(difluoromethyl)nicotinamide]
21 | 576 | 7.43 | 2.11 | 9.84 | – | – | – | COc1cc(C(=O)N[C@H]2CCc3cc(-n4c(-c5cccnc5N)nc5ccc(-n6cccn6)nc54)ccc32)ccn1 [Compound 25, (S)—N-(5-(2-(2-aminopyridin-3-yl)-5-(1H-pyrazol-1-yl)-3H-imidazo[4,5-b]pyridin-3-yl)-2,3-dihydro-1H-inden-1-yl)-2-methoxyisonicotinamide]
22 | 950 | 75.5 | 3.63 | 18.3 | – | – | – | COc1nccc(C(=O)N[C@H]2CCc3cc(-n4c(-c5cccnc5N)nc5ccc(-n6cccn6)nc54)ccc32)c1Cl [Compound 281]
23 | 740 | 10.5 | 7.56 | 38.1 | – | – | – | COc1ccc(C(=O)N[C@H]2CCc3cc(-n4c(-c5cccnc5N)nc5ccc(-n6cccn6)nc54)ccc32)cc1 [Compound 12, (S)—N-(5-(2-(2-aminopyridin-3-yl)-5-(1H-pyrazol-1-yl)-3H-imidazo[4,5-b]pyridin-3-yl)-2,3-dihydro-1H-inden-1-yl)-4-methoxybenzamide]
24 | 741 | 62.1 | 2.5 | 31.5 | – | – | – | Cc1cc(C(=O)N[C@H]2CCc3cc(-n4c(-c5cccnc5N)nc5ccc(-n6cccn6)nc54)ccc32)cnc1C(F)F [Compound 60, (S)—N-(5-(2-(2-aminopyridin-3-yl)-5-(1H-pyrazol-1-yl)-3H-imidazo[4,5-b]pyridin-3-yl)-2,3-dihydro-1H-inden-1-yl)-6-(difluoromethyl)-5-methylnicotinamide]
25 | 628 | 127 | 6.84 | 207 | – | – | – | COc1cc(C(=O)N[C@H]2CCc3cc(-n4c(-c5cccnc5N)nc5ccc(-n6nccn6)nc54)ccc32)ccn1 [Compound 321]
26 | 1020 | 41.2 | 5.78 | 90.6 | – | – | – | Nc1ncccc1-c1nc2ccc(-n3cccn3)nc2n1-c1ccc2c(c1)CC[C@@H]2NC(=O)c1ccc2nccn2c1 [Compound 17, (S)—N-(5-(2-(2-aminopyridin-3-yl)-5-(1H-pyrazol-1-yl)-3H-imidazo[4,5-b]pyridin-3-yl)-2,3-dihydro-1H-inden-1-yl)imidazo[1,2-a]pyridine-6-carboxamide]
